According to PubChem BioAssay AID504645 (Southern Research Specialized Biocontainment Screening …, 2011):
Calls of active or inactive are those of the source. How the calls were made is not given here.

Test: M tuberculosis H37Rv growth inhibition in absence of glycerol, confirmatory, IC90 (AID 504645);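 further: bacteria grown one week before the viability dye was added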
Details: M. tuberculosis H37Rv growth inhibition, glycerol-free medium; at 25 µM (top of the series)

SMILES | inhibition
CN(C(=O)CSc1nc2ccccc2c(=O)[nH]1)C1CCCCC1 | 3.96% (inactive)
CCC(Sc1nc(=O)cc(N)n1-c1ccccc1)C(=O)Nc1cc(C)on1 (centres undefined) | 3.38% (inactive)
Nc1cc(=O)[nH]c(SCC(=O)Nc2ccccc2-c2ccccc2)n1 | 3.67% (inactive)
O=C(NCCc1ccc(Cl)cc1)C1CCC(CNc2c(N3CCCCC3)c(=O)c2=O)CC1 (centres undefined) | 14.2% (inactive)
Nc1cc(=O)[nH]c(SCC(=O)Nc2ccc(Oc3ccccc3)cc2)n1 | 7.34% (inactive)
Cc1[nH]c2ccccc2c1C(=O)COC(=O)c1ccc([N+](=O)[O-])s1 | 8.85% (inactive)
Cc1ccc(NC(=O)CSc2nc(N)c(-c3ccccc3)c(=O)[nH]2)cc1Cl | 1.17% (inactive)
CCOC(=O)N1CCC(Nc2c(Nc3cccc(CC)c3)c(=O)c2=O)CC1 | 11.5% (inactive)
Oc1ccccc1/C=N/Nc1ccnc(SCc2ccccc2)n1 | 2.52% (inactive)
COC(=O)C(Nc1nc(SCC(=O)NC2CCCCC2)nc2ccccc12)c1ccccc1 (centres undefined) | -2.65% (inactive)
CC(NC(=O)CSc1nc2ccccc2c(=O)[nH]1)c1ccccc1 (centres undefined) | 1.63% (inactive)
Cc1cc(C)cc(NC(=O)CSc2nc3c(c(=O)[nH]2)CN(Cc2ccc(F)cc2)CC3)c1 | -0.57% (inactive)
CCOC(=O)CSc1nc(C)c(C)c(=O)[nH]1 | -1.83% (inactive)
Cc1nc(SCc2ccccc2Cl)[nH]c(=O)c1C | -3.47% (inactive)
CCOc1ccc(NC(=O)c2ccc(CNc3c(N4CCCC4)c(=O)c3=O)cc2)cc1 | 7.47% (inactive)
CCSc1nc(C)c(C)c(=O)[nH]1 | 3.06% (inactive)
COc1ccc(NC(=O)CSc2nc(NS(=O)(=O)c3ccc(C)cc3)cc(=O)[nH]2)cc1 | 1.34% (inactive)
Cc1cc(=O)[nH]c(SCC(=O)Nc2ncc(S(=O)(=O)c3ccc([N+](=O)[O-])cc3)s2)n1 | 2.85% (inactive)
COC(=O)c1ccc(CNc2c(N3CCCC3)c(=O)c2=O)cc1 | -5.38% (inactive)
